{
  "source": "patent US6034064A",
  "about": "“Peptides and therapeutic agent for autoimmune diseases containing the same” (Hoechst Pharmaceuticals & Chemicals K.K., priority 1995, dated 2000)",
  "key": {"[1]": {"test_system": "anti-KLH antibody production", "assay": "Suppressive effect on anti-KLH antibody production in mice (ELISA of serum IgG)", "assay_type": "in vivo, mouse (Balb/c)", "conditions": "Example 7", "procedure": "Day 5 and day 3 prior to the antigen administration, 100 μg of each Peptide (I) to (VI) of the present invention composed of 9 amino acid residues indicated by Sequence ID No. 1 in the Sequence Listing were dissolved in 200 μl of physiological saline. The resulting solution was subcutaneously administered to 9-week-old Balb/c mice. As a control, a non-administered group to which the same amount of physiological saline was administered was employed. In 200 μl of physiological saline, 25 μg of KLH were dissolved as an antigen and the resulting solution was subcutaneously administered. The blood was collected on day 21 after antigen administration and an antibody titer was measured by the method which is described below.\nKLH was diluted to 10 μg/ml with a phosphate buffered physiological saline (PBS). Fifty μl portions of the resulting solution were poured into a 96-well microplate and the plate was allowed to stand at 4iC overnight. After the microplate was washed three times with 0.05% Tween®-20-containing PBS (T-PBS), 200 μl portions of 0.5% casein tris-buffered physiological saline (casein TBS) were poured into wells, respectively. […] The microplate was washed three times with T-PBS and 50 μl portions of the mouse serum diluted to 1/200 with casein TBS were poured into the wells, followed by reaction for one hour (primary reaction).\nThe resulting microplate was washed three times with T-PBS, to which 50 μl portions of an anti-mouse IgG-peroxidase-labeled antibody (TAGO Co.) diluted to 1/4000 with casein TBS were poured. The reaction was effected at room temperature for one hour (secondary reaction). After the completion of the secondary reaction, the plate was washed three times again. Fifty μl portions of a substrate liquid/chromogen (chromogen substrate: Behringwerke AG) were poured into wells, respectively, followed by reaction at room temperature for 30 minutes. After the completion of the reaction, 0.5N diluted sulfuric acid was added to terminate the reaction and an absorbance at 450 nm was measured by a calorimeter (\"BEP-II \", product of Behringwerke AG/Germany) with the absorbance at 650 nm as a control.\nIn a similar manner to Example 3, suppressive effects of Peptides (I), (VII) to (XV) on anti-KLH antibody production in mice were studied."}, "[2]": {"test_system": "anti-OVA antibody production", "assay": "Suppressive effect on anti-OVA antibody production in mice (ELISA of serum IgG)", "assay_type": "in vivo, mouse (Balb/c)", "parameters": "Anti OVA Ig-G antibody titer: dose or concentration left out as unconfirmed", "conditions": "for anti-OVA antibody production compared with Peptide (I) administered group / anti-OVA antibody production compared with the non-administered group and Peptide (I) administered group: Example 8", "procedure": "Day 5 and day 3 prior to the antigen administration, Peptide (I) composed of 9 amino acid residues as indicated by Sequence ID No. 1 in the Sequence Listing of the present invention and a synthetic peptide 15 composed of 15 amino acid residues derived from clone 17.2 TcR, which peptide had been reported by Mohapatra et al. as described above, 100 g each, were dissolved in 200 of physiological saline and each solution thus obtained was subcutaneously administered to 9-week-old Balb/c mice. As a control, a non-administered group to which the same amount of physiological saline was administered was employed. In 200 l of physiological saline, 100 g of OVA (Sigma Chemical Co.) were dissolved, followed by subcutaneous administration. Blood was collected on day 21 after antigen administration and an antibody titer was measured by the method described below.\nOVA was diluted to 10 µg/ml with phosphate buffered saline (PBS) and 50 l portions of the solution were poured in a 96-well microplate. The coating operation was conducted overnight at […]. The microplate was then washed three times with a 0.05% Tween®-20-containing PBS (T-PBS). 200 l portions of 0.5% casein-containing tris buffered physiological saline (casein TBS) were poured in each well and the microplate was allowed to stand at room temperature for one hour. The microplate was then washed three times with T-PBS. After the serum of the blood collected from the mice was diluted to 1/200 with 0.5% casein TBS, 50 l portions of the diluted serum were poured in each well and the plate was allowed to stand for one hour (primary reaction).\nAfter the completion of the primary reaction, the microplate was washed three times with T-PBS. Fifty l portions of anti-mouse IgG-peroxidase-labeled antibody (TAGO Co.) diluted to 1/4000 with 0.5% casein TBS were poured in each well, followed by reaction at room temperature for one hour (secondary reaction). After the completion of the secondary reaction, the plate was washed three times again. Fifty l portions of a substrate liquid/chromogen (chromogen substrate: Behringwerke AG) were poured in each well, followed by reaction at room temperature for 30 minutes. After the completion of the reaction, 0.5N diluted sulfuric acid was added to terminate the reaction and an absorbance at 450 nm was measured by a calorimeter (\"BEP-II\", product of Behringwerke AG/Germany) with an absorbance at 650 nm as a control.\nIn a similar manner to Example 2, the suppressive effects of Peptides (I), (VII) to (XIV) on the anti-OVA antibody production in mice were measured."}, "[3]": {"test_system": "EAE model mice", "assay": "Onset suppressive effect on EAE model mice", "assay_type": "in vivo, mouse (SJL)", "procedure": "As an antigen, guinea pig spinal chord homogenate was employed. The guinea pig spinal chord homogenate was diluted with PBS to be 6.6 mg/ml, followed by the addition of the equivalent amount of Freunds complete adjuvant. The resulting mixture was formed into an emulsion by an ultrasonic sonicator. The resulting emulsion was administered to two areas under the lateral skin in a total amount of 300 μl. Day 5 and day 3 prior to antigen administration, and 5 days a week for 4 weeks after antigen administration, the solution of Peptide (I) dissolved in 100 μl physiological saline was subcutaneously administered to a 14-week old SJL mouse. Incidentally, in order to increase an onset ratio, […] of pertussis toxin (PTX) were intravenously administered as an enhancer on the day of antigen administration and two days after antigen administration. Observation of the onset was performed from day 14 to day 28 after primary antigen administration. The onset was scored based on the following standard criteria [Pettinelli, C. B., Fritz, D. E., and McFarlin, D. E. J. Immunl., 129, No. 3, 1024-1028 (1982)]. In Table 3, values of average score+standard deviation (SD) in each administration group on day 22, day 25 and day 28 after primary antigen administration are shown.\nScore 1: Slight paralysis of hind leg with tail weakness\nScore 2: Moderate paralysis of hind leg with tail weakness\nScore 3: Total paralysis of hind leg\nScore 4: Slight paralysis of forward leg with total paralysis of hind leg\nScore 5: Total paralysis of all leg\nScore 6: Death from paralysis"}},
  "note": "No end group written: not given here.",
  "data": [
    {"substance": "AALTFGKG [Peptide (VIII), Ala-Ala-Leu-Thr-Phe-Gly-Lys-Gly]", "values": [
      {"measurement": "anti-KLH antibody production compared with Peptide (I) administered group", "setting": "[1]", "value": "not suppressed"}
    ]},
    {"substance": "AKLTAGKG [Peptide (XIV), Ala-Lys-Leu-Thr-Ala-Gly-Lys-Gly]", "values": [
      {"measurement": "anti-KLH antibody production compared with Peptide (I) administered group", "setting": "[1]", "value": "not suppressed"},
      {"measurement": "anti-OVA antibody production compared with Peptide (I) administered group", "setting": "[2]", "value": "not suppressed"}
    ]},
    {"substance": "AKLTFAKG [Peptide (X), Ala-Lys-Leu-Thr-Phe-Ala-Lys-Gly]", "values": [
      {"measurement": "anti-KLH antibody production compared with the non-administered group and Peptide (I) administered group", "setting": "[1]", "value": "significantly suppressed"}
    ]},
    {"substance": "KLTFGKG [Peptide (XV), Lys-Leu-Thr-Phe-Gly-Lys-Gly]", "values": [
      {"measurement": "anti-KLH antibody production compared with Peptide (I) administered group", "setting": "[1]", "value": "not suppressed"}
    ]},
    {"substance": "AKLTFGKGT [Peptide (I), Ala-Lys-Leu-Thr-Phe-Gly-Lys-Gly-Thr]", "values": [
      {"measurement": "Anti OVA Ig-G antibody titer", "setting": "[2]; Example 2, Table 1, peptide s.c. day 5 and day 3 prior to OVA, blood day 21, 8 mice per group", "value": "8.8 ± 10.8", "unit": "unit"},
      {"measurement": "anti-OVA antibody production compared with the non-administered group", "setting": "[2]; Example 2, 8 mice per group", "value": "significantly suppressed"},
      {"measurement": "EAE average score ± SD", "setting": "[3]; 1 μg/body s.c., Day 22", "value": "1.6 ± 1.8", "unit": "score"},
      {"measurement": "EAE average score ± SD", "setting": "[3]; 1 μg/body s.c., Day 25", "value": "0.9 ± 1.1", "unit": "score"},
      {"measurement": "EAE average score ± SD", "setting": "[3]; 1 μg/body s.c., Day 28", "value": "1.8 ± 1.9", "unit": "score"},
      {"measurement": "EAE average score ± SD", "setting": "[3]; 5 μg/body s.c., Day 22", "value": "0.4 ± 0.7", "unit": "score"},
      {"measurement": "EAE average score ± SD", "setting": "[3]; 5 μg/body s.c., Day 25", "value": "1.0 ± 1.1", "unit": "score"},
      {"measurement": "EAE average score ± SD", "setting": "[3]; 5 μg/body s.c., Day 28", "value": "0.7 ± 0.8", "unit": "score"},
      {"measurement": "onset of EAE compared with physiological saline group", "setting": "[3]; 5 μg/body, day 25 and day 28, significant difference of 5%", "value": "suppressed"},
      {"measurement": "EAE average score ± SD", "setting": "[3]; 25 μg/body s.c., Day 22 after primary antigen administration", "value": "0.3 ± 0.4", "unit": "score"},
      {"measurement": "EAE average score ± SD", "setting": "[3]; 25 μg/body s.c., Day 25", "value": "0.1 ± 0.3", "unit": "score"},
      {"measurement": "EAE average score ± SD", "setting": "[3]; 25 μg/body s.c., Day 28", "value": "0.0 ± 0.0", "unit": "score"},
      {"measurement": "onset of EAE compared with physiological saline group", "setting": "[3]; 25 μg/body, from day 22 significant difference of 5%, from day 25 of 1%", "value": "suppressed"},
      {"measurement": "onset of EAE", "setting": "[3]; administration of Peptide (I), overall", "value": "suppressed"}
    ]},
    {"substance": "AKLAFGKG [Peptide (IX), Ala-Lys-Leu-Ala-Phe-Gly-Lys-Gly]", "values": [
      {"measurement": "anti-KLH antibody production compared with the non-administered group and Peptide (I) administered group", "setting": "[1]", "value": "significantly suppressed"},
      {"measurement": "anti-OVA antibody production compared with the non-administered group and Peptide (I) administered group", "setting": "[2]", "value": "significantly suppressed"}
    ]},
    {"substance": "AKATFGKG [Peptide (XIII), Ala-Lys-Ala-Thr-Phe-Gly-Lys-Gly]", "values": [
      {"measurement": "anti-KLH antibody production compared with Peptide (I) administered group", "setting": "[1]", "value": "not suppressed"},
      {"measurement": "anti-OVA antibody production compared with Peptide (I) administered group", "setting": "[2]", "value": "not suppressed"}
    ]},
    {"substance": "AKLTFGKA [Peptide (XII), Ala-Lys-Leu-Thr-Phe-Gly-Lys-Ala]", "values": [
      {"measurement": "anti-KLH antibody production compared with Peptide (I) administered group", "setting": "[1]", "value": "not suppressed"}
    ]},
    {"substance": "AKLTFGAG [Peptide (XI), Ala-Lys-Leu-Thr-Phe-Gly-Ala-Gly]", "values": [
      {"measurement": "anti-KLH antibody production compared with the non-administered group and Peptide (I) administered group", "setting": "[1]", "value": "significantly suppressed"},
      {"measurement": "anti-OVA antibody production compared with the non-administered group and Peptide (I) administered group", "setting": "[2]", "value": "significantly suppressed"}
    ]},
    {"substance": "AKLTFGKG [Peptide (VII), Ala-Lys-Leu-Thr-Phe-Gly-Lys-Gly]", "values": [
      {"measurement": "anti-KLH antibody production compared with the non-administered group and Peptide (I) administered group", "setting": "[1]", "value": "significantly suppressed"},
      {"measurement": "anti-OVA antibody production compared with the non-administered group and Peptide (I) administered group", "setting": "[2]", "value": "significantly suppressed"}
    ]}
  ]
}
